Values of other authors in patent US20220241275A1, “TARGETED TREATMENT OF CANCERS WITH DYSREGULATED FIBROBLAST GROWTH FACTOR RECEPTOR SIGNALING” (G1 Therapeutics, Inc., priority 2019, published 2022).
Read-outs that look alike come from different tables or passages of the source.

What was measured:
[1] = target: FGFR2 (Homo sapiens, UniProt P21802)
[2] = target: FGFR4 (Homo sapiens, UniProt P22455)
[3] = target: FGFR1 (Homo sapiens, UniProt P11362)
[4] = target: FGFR3 (Homo sapiens, UniProt P22607)
FGFR3, sequence (P22607 23-806): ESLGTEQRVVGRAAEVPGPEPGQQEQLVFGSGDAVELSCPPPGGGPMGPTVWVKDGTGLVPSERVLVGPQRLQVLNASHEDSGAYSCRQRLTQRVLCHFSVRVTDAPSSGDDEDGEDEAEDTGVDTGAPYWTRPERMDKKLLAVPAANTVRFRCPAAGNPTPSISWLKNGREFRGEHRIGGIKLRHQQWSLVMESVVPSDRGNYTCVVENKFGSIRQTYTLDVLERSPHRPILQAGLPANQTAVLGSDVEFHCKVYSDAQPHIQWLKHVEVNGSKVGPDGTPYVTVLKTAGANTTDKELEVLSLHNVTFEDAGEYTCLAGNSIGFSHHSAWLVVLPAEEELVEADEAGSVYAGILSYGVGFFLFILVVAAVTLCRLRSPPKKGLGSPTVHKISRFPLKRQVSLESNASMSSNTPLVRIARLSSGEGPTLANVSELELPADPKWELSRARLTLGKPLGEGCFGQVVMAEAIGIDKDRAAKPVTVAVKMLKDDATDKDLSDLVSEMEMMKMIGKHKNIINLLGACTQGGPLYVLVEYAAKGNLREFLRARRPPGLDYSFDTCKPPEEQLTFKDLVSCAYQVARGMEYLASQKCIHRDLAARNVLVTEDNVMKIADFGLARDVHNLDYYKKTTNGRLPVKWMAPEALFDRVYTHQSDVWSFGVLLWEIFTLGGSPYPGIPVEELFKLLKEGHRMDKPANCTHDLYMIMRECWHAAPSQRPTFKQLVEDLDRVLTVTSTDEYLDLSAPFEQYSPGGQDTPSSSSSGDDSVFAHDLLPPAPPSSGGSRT

[5] = target: VEGFR2 (Homo sapiens, UniProt P35968); settings: cell-free assays
VEGFR2, sequence (P35968 20-1356, species assumed): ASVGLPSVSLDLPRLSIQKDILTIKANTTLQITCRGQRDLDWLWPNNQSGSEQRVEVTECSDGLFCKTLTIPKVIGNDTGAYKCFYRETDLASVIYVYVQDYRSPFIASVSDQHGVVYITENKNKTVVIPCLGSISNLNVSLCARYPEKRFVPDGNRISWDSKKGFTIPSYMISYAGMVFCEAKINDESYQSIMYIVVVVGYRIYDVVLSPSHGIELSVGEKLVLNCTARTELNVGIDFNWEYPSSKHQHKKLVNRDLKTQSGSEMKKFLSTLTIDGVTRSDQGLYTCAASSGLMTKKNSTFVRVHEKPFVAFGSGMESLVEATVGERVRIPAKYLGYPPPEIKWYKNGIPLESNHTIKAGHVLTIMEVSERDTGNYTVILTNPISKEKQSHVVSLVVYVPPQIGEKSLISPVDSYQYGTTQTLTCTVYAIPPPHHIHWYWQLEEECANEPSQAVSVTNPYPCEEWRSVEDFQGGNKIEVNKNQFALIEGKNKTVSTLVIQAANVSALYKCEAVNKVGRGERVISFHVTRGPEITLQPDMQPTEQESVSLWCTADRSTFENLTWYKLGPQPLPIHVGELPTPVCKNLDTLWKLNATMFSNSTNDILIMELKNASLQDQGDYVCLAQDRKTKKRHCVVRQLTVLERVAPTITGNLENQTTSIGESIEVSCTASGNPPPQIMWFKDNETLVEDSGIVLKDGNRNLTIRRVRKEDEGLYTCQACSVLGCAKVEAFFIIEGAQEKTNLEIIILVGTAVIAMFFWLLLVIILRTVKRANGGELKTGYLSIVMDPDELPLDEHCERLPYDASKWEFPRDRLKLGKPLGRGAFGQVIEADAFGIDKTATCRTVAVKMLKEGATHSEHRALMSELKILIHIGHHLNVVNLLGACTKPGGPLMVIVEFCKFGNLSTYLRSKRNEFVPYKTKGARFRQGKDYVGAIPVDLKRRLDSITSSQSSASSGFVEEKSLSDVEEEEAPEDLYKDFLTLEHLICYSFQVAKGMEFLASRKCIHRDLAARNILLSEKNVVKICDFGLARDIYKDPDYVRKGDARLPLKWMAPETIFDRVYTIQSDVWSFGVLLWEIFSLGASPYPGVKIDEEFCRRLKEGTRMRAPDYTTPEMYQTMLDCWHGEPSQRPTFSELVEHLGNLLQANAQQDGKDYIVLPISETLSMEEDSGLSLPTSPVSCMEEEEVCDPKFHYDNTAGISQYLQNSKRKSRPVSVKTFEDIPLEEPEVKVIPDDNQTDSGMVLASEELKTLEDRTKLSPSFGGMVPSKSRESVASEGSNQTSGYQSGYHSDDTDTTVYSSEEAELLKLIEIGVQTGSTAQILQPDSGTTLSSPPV

[6] = tested on: FGFR1-amplified squamous NSCLC and FGFR3-mutant urothelial cancer; settings: doses >=100 mg, phase I dose escalation trial

FGFR4, sequence (P22455 22-802): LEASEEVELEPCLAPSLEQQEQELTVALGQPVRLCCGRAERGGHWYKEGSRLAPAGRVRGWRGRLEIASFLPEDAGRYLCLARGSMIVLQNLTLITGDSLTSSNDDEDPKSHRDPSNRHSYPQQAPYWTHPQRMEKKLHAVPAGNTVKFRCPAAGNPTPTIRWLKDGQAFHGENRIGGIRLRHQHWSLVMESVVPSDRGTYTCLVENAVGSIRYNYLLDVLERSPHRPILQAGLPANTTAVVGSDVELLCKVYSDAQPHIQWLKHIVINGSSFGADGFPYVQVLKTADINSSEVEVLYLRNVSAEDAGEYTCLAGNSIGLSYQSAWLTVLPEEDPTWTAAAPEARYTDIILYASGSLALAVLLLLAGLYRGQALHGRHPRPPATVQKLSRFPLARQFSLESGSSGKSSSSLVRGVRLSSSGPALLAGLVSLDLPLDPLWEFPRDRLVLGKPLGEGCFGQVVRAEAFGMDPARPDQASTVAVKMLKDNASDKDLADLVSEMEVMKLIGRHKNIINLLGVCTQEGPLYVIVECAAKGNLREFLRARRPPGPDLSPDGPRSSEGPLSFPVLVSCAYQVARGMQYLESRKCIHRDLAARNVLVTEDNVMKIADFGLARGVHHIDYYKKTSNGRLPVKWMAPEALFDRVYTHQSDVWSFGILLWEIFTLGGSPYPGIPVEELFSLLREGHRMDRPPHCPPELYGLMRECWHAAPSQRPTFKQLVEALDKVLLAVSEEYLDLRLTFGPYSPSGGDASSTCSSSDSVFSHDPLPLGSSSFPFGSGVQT
FGFR1, sequence (P11362 22-822): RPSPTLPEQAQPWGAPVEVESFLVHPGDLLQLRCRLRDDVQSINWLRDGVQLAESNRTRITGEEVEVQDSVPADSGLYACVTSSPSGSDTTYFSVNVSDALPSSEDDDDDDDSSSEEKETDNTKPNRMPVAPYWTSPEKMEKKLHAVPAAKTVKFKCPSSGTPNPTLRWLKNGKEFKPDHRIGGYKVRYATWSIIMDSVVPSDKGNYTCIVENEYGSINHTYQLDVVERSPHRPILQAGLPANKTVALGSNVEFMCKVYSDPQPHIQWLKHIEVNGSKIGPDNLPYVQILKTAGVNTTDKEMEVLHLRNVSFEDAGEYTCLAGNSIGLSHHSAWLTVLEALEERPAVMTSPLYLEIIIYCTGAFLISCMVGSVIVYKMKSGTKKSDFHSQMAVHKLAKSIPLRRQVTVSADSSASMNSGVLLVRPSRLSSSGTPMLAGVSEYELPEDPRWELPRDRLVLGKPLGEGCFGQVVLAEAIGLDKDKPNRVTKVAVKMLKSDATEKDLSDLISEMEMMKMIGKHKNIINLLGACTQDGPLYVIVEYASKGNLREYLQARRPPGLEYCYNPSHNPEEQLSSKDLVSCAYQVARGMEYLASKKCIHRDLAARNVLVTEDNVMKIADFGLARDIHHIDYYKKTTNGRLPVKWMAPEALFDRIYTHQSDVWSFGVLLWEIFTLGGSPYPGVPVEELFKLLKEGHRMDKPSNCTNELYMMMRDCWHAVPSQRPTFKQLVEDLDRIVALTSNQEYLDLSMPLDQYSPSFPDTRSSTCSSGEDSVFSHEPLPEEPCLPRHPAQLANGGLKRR
FGFR2, sequence (P21802 22-821): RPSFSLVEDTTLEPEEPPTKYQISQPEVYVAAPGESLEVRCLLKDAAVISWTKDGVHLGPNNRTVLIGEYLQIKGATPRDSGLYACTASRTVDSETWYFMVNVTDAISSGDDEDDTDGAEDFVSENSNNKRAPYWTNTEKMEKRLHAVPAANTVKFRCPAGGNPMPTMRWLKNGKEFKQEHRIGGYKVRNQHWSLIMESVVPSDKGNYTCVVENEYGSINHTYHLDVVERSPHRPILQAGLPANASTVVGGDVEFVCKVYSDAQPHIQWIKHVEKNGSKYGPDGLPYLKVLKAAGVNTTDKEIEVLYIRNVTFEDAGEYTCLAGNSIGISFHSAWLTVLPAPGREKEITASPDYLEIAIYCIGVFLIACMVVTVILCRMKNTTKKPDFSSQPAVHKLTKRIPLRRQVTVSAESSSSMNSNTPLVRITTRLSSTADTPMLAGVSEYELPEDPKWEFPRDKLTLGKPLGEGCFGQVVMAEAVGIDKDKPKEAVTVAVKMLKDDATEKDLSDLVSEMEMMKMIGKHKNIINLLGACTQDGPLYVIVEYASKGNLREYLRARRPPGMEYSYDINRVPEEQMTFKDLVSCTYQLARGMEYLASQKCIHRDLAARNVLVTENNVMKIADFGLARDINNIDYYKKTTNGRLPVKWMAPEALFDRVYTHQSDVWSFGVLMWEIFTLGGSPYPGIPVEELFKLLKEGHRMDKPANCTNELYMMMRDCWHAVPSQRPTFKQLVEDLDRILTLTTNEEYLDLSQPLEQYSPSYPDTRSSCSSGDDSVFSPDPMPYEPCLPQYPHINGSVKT

## C=CC(=O)Nc1ccc(CN2C(=O)N(c3cc(OC)cc(OC)c3)Cc3cnc(Nc4ccc(N5CCN(C)CC5)cc4)nc32)cc1 [FIIN-2]
[1]
  IC50: 4.3 nM
[2]; read-out: IC50 for FGFR4
  IC50: 45.3 nM
[3]
  IC50: 3.09 nM
[4]
  IC50: 27 nM

## CCN(CC)CCCCNc1ncc2cc(-c3cc(OC)cc(OC)c3)c(NC(=O)NC(C)(C)C)nc2n1 [PD173074]
[5]
  IC50: 100 to 200 nM

## CNC(=O)c1cccc2cc(Oc3ccnc(NC(=O)c4ccc(N5CCN(CCO)CC5)cc4)c3)ccc12 [SOMCL-085]
[2]; read-out: IC50, FGFR4
  IC50: 320 nM

## CCN1CCN(c2ccc(Nc3cc(N(C)C(=O)Nc4c(Cl)c(OC)cc(OC)c4Cl)ncn3)cc2)CC1 [infigratinib]
[6]
  confirmed partial responses: six
